For series [1] the following is noted: human, in vivo, 800 mg.
For series [2] the following is noted: human; recommended dose 800 mg daily; cited from earlier work.
The conditions of series [3]: rat, six-month, cited from earlier work.
The subject of a further series is TGCT or DTGCT. The settings on record: cited from earlier work.
Another series in a line: clinical. The settings on record: human, in vivo, 800 mg.
The conditions of series [4]: rat, 4-week, cited from earlier work.
A further series relates to M-NFS-60 cells. Put plainly: cells. The format is cell-based. The settings on record: Mus musculus.

Molecules are shown by their SMILES. Entries after “also recorded” stand apart in the source; their conditions may differ. Where two headings read alike, the source gives them in different places.

Results on 1 molecule are retold here after patent US11679110B2, “Methods of treating disorders using CSF1R inhibitors” (Deciphera Pharmaceuticals, LLC, priority 2018, dated 2023).

Broadly, the AUC(0-t) is the area under the concentration-time curve up to a stated or last time point. The low end stands for less exposure, the high end for more exposure.

Consider `FC(F)(F)c1ccc(CNc2ccc(Cc3c[nH]c4ncc(Cl)cc34)cn2)cn1` [pexidartinib], for which the “AUC0-24 clinical exposure (estimated from label AUC0-12)” value in series [1] is 154.93 µg·h/mL. For the same molecule, the “AUC0-12 clinical exposure cited in the label” value in series [2] was 77.465 µg·h/mL. The “deaths of main study animals due to treatment-related immunocompromise” value in series [3] (60 mg/kg daily) is given as 3. Further, the “liver findings in female rats” value in series [3] (60 mg/kg, female) is “biliary cysts and increased gamma-glutamyl transferase (GGT) levels”. Also, the liver findings entry in series [3] (≥20 mg/kg) was “hemosiderin deposition and necrotizing inflammation”. In addition, the ORR with TGCT or DTGCT (ENLIVEN phase 3 randomized trial, maintenance dose 400 mg twice daily) is 39%. In the series with TGCT or DTGCT (TGCT or DTGCT patients, 1000 mg daily, phase 2 clinical study), the “overall response rate (ORR)” value is given as 52%. Besides, the maximum tolerated dose in the series with TGCT or DTGCT (TGCT patients, clinical use) is on record as 400 mg twice daily. For the same molecule, in the series with TGCT or DTGCT (patients), the “liver injury / hepatotoxicity” value was “mixed or cholestatic hepatotoxicity; also recorded: black box warning of hepatotoxicity”; the “maximum tolerated dose and chosen phase 2 dose” value is listed as 1000 mg per day. Also, the AUC(0-t) in the series “clinical” was 155 µg·h/mL. Further, the NOAEL result in series [4] (20, 60, 200 mg/kg/day oral gavage) was “could not be established”. For the same molecule, in series [4] (all dose groups), the liver enzymes entry is “increased liver enzymes” and the liver histology finding entry was “dose-related hepatocellular centrilobular hypertrophy”. Further, the IC50 in the series with M-NFS-60 cells (read-out: average IC50, inhibition of M-NFS-60 cell proliferation, 10 ng/mL CSF1) was determined as 15.7 nM. The IC50 in the series with M-NFS-60 cells (read-out: average IC50, inhibition of M-NFS-60 cell proliferation, 1,000 ng/mL CSF1) was 59.6 nM.
